Results on 41 compounds are retold here after US20250295652A1, “Inhibitors of Molluscum Contagiosum Infection and Methods Using the Same” (priority 2021, published 2025).

The first test deals with mD4-VV surrogate virus. The test can be described thus: microbe, parasite or virus in culture. The class given is cell-based, mD4/vaccinia hybrid virus.
Conditions: not given
Consider `COC(=O)c1ccsc1NC(=O)N1CCN(c2ccccn2)CC1` [Compound 114, Methyl 2-(4-(pyridin-2-yl)piperazine-1-carboxamido)thiophene-3-carboxylate], for which the “% @ 25 uM (mD4)” value was 32% @ 25 uM.

Turning to `CCOC(=O)c1nnsc1NC(=O)C(CC)c1ccccc1` (centres unmarked) [Compound 106, 5-(2-Phenyl-butyrylamino)-[1,2,3]thiadiazole-4-carboxylic acid ethyl ester], the “% @ 25 uM (mD4)” value was 40% @ 25 uM.

With `CCC(C(=O)Nc1sccc1C(=O)OC)c1ccccc1` (centres unmarked) [Compound 112, Methyl 2-(2-phenylbutanamido)thiophene-3-carboxylate], the “% @ 25 uM (mD4)” value was 59% @ 25 uM.

`CCC(C(=O)Nc1sc(C(N)=O)c(C)c1C(=O)OC)c1ccc(OC)cc1` (centres unmarked) [Compound 97, Methyl 2-(2-(4-methoxyphenyl)butanamido)-5-carbamoyl-4-methylthiophene-3-carboxylate]: the “% @ 25 uM (mD4)” value is 37% @ 25 uM.

The test is the same for the next values; noted with them: Hybrid virus, BSC-1, read-out: mD4 EC50.
As a reminder, the EC50 is the concentration giving half of the maximal effect. Consider `O=C(Nc1snnc1-c1ccc(C(F)(F)F)cc1)N1CCN(c2ccccn2)CC1` [Compound 118, 4-Pyridin-2-yl-piperazine-1-carboxylic acid [4-(4-trifluoromethyl-phenyl)-[1,2,3]thiadiazol-5-yl]-amide], for which the EC50 amounted to 4 µM.

As to `CCC(C(=O)Nc1sc(C(=O)OC(C)(C)C)c(C)c1C(=O)OC)c1cc(F)cc(F)c1` (centres unmarked) [Compound 194, 2-tert-butyl 4-methyl 5-(2-(3,5-difluorophenyl)butanamido)-3-methylthiophene-2,4-dicarboxylate], the EC50 was greater than 50 µM.

As for `Cc1ccc(CNC(=O)c2nnsc2NC(=O)N2CCN(c3ccccn3)CC2)cc1` [Compound 124, 4-Pyridin-2-yl-piperazine-1-carboxylic acid [4-(4-methyl-benzylcarbamoyl)-[1,2,3]thiadiazol-5-yl]-amide], the EC50 is 14.5 µM.

Turning to `CCC(C(=O)Nc1scnc1C(=O)NCc1ccccc1)c1ccccc1` (centres unmarked) [Compound 162, 5-(2-Phenylbutanamido)-N-benzylthiazole-4-carboxamide], the EC50 stood at 18.1 µM.

Turning to `Cc1c(C(N)=O)sc(NC(=O)N2CCN(c3ccccn3)CC2)c1C(=O)NCc1ccccc1` [Compound 131, 2-(4-(pyridin-2-yl)piperazine-1-carboxamido)-N3-benzyl-4-methylthiophene-3,5-dicarboxamide], the EC50 came to 31.8 µM.

On to `CCC(C(=O)Nc1sc(C(N)=O)c(C)c1C(=O)OC)c1cccc(F)c1` (centres unmarked) [Compound 98, Methyl 2-(2-(3-fluorophenyl)butanamido)-5-carbamoyl-4-methylthiophene-3-carboxylate], for which the EC50 is 18 µM.

Take `CCC(C(=O)Nc1sc(C(=O)OC(C)(C)C)c(C)c1C(=O)OC)c1ccc(C(F)(F)F)cc1` (centres unmarked) [Compound 198, 2-tert-butyl 4-methyl 5-(2-(4-(trifluoromethyl)phenyl)butanamido)-3-methylthiophene-2,4-dicarboxylate]: the EC50 was greater than 50 µM.

`CCC(C(=O)Nc1snnc1-c1ccccc1F)c1ccccc1` (centres unmarked) [Compound 153, N-[4-(2-Fluoro-phenyl)-[1,2,3]thiadiazol-5-yl]-2-phenyl-butyramide]: the EC50 amounted to 10.2 µM.

In the case of `O=C(NCc1ccccc1)c1nnsc1NC(=O)N1CCN(c2ccccc2F)CC1` [Compound 169, 4-(2-Fluoro-phenyl)-piperazine-1-carboxylic acid (4-benzylcarbamoyl-[1,2,3]thiadiazol-5-yl)-amide], the EC50 stood at 32.7 µM.

As to `CCC(C(=O)Nc1snnc1-c1ccc(F)cc1)c1ccccc1` (centres unmarked) [Compound 154, N-[4-(4-Fluoro-phenyl)-[1,2,3]thiadiazol-5-yl]-2-phenyl-butyramide], the EC50 turned out to be 32 µM.

The subject of the next test is VV. The test can be described thus: microbe, parasite or virus in culture. Type of test: cell-based, vaccinia virus. The note with it: Orthopoxvirus vaccinia, BSC-1, read-out: VV EC50.
Regarding `CCC(C(=O)Nc1cc(C)ns1)c1ccccc1` (centres unmarked) [Compound 78, N-(3-methylisothiazol-5-yl)-2-phenylbutanamide], the EC50 came to 41.7 µM.

With `CCC(C(=O)Nc1sccc1C(N)=O)c1ccccc1` (centres unmarked) [Compound 31, 2-(2-phenylbutanamido)thiophene-3-carboxamide], the EC50 was determined as 49.7 µM.

As for `COC(=O)c1c(NC(=O)C2CCc3ccccc32)sc(C(N)=O)c1C` (centres unmarked) [Compound 35, 5-Carbamoyl-2-[(indane-1-carbonyl)-amino]-4-methyl-thiophene-3-carboxylic acid methyl ester], the EC50 is 20.4 µM.

With `CCC(C(=O)Nc1sc(C(N)=O)c(C)c1C#N)c1ccc([N+](=O)[O-])cc1` (centres unmarked) [Compound 75, 5-(2-(4-Nitrophenyl)butanamido)-4-cyano-3-methylthiophene-2-carboxamide], the EC50 was 35 µM.

Consider `Cc1c(C(N)=O)sc(NC(=O)C2CCc3cc(Cl)ccc32)c1C#N` (centres unmarked) [Compound 50, 5-[(5-Chloro-indane-1-carbonyl)-amino]-4-cyano-3-methyl-thiophene-2-carboxylic acid amide], for which the EC50 was 33 µM.

`CCC(C(=O)Nc1sc(C(=O)N(CC)CC)c(C)c1C#N)c1ccccc1` (centres unmarked) [Compound 66, 4-cyano-N,N-diethyl-3-methyl-5-(2-phenylbutanamido)thiophene-2-carboxamide]: the EC50 was found to be 42.2 µM.

In the case of `COc1ccc(CN(Cc2ccc(OC)cc2)C(Cc2ccccc2)C(=O)Nc2sc(C(N)=O)c(C)c2C#N)cc1` (centres unmarked) [Compound 57, 5-(2-{Bis[(4-methoxyphenyl)methyl]amino}-3-phenylpropanamido)-4-cyano-3-methylthiophene-2-carboxamide], the EC50 turned out to be 20.8 µM.

With `CCC(C(=O)Nc1sc(C(=O)OC)cc1C#N)c1ccccc1` (centres unmarked) [Compound 82, Methyl 5-(2-phenylbutanamido)-4-cyanothiophene-2-carboxylate], the EC50 was found to be 11 µM.

For the compound `CCOC(=O)c1c(NC(=O)C(CC)c2ccccc2)sc(C)c1CC` (centres unmarked) [Compound 2, ethyl 4-ethyl-5-methyl-2-(2-phenylbutanamido)thiophene-3-carboxylate], the EC50 stood at 36.6 µM.

With `CCC(C(=O)Nc1sc(C(=O)N(CC)CC)c(C)c1C(=O)OC)c1ccccc1` (centres unmarked) [Compound 24, methyl 5-(diethylcarbamoyl)-4-methyl-2-(2-phenylbutanamido)thiophene-3-carboxylate], the EC50 is 16.4 µM.

On to `COC(=O)c1c(NC(=O)C2(c3ccccc3)CC2)sc(C(N)=O)c1C` [Compound 36, 5-Carbamoyl-4-methyl-2-[(1-phenyl-cyclopropanecarbonyl)-amino]-thiophene-3-carboxylic acid methyl ester], for which the EC50 amounted to 14.3 µM.

`CCOC(=O)c1c(NC(=O)C(CC)c2ccccc2)sc(C(N)=O)c1C` (centres unmarked) [Compound 8, ethyl 5-carbamoyl-4-methyl-2-(2-phenylbutanamido)thiophene-3-carboxylate]: the EC50 amounted to 10.3 µM.

With `CCC(C(=O)Nc1snc(C)c1C(=O)OC)c1ccccc1` (centres unmarked) [Compound 89, 3-Methyl-5-(2-phenyl-butyrylamino)-isothiazole-4-carboxylic acid methyl ester], the EC50 was 29.3 µM.

On to `CCC(C(=O)Nc1sncc1C#N)c1ccccc1` (centres unmarked) [Compound 90, N-(4-Cyano-isothiazol-5-yl)-2-phenyl-butyramide], for which the EC50 was found to be 21.8 µM.

`CCC(C(=O)Nc1sc(C(N)=O)c(C)c1C#N)c1ccccc1` (centres unmarked) [Compound 9, 4-cyano-3-methyl-5-(2-phenylbutanamido)thiophene-2-carboxamide]: the EC50 is 11.3 µM.

Regarding `CC[C@@H](C(=O)Nc1sc(C(N)=O)c(C)c1C(=O)OC)c1ccccc1` [Compound 16, methyl (R)-5-carbamoyl-4-methyl-2-(2-phenylbutanamido)thiophene-3-carboxylate], the EC50 turned out to be 16.4 µM.

For the compound `CCOC(=O)c1sc(NC(=O)C(CC)c2ccccc2)c(C(N)=O)c1C` (centres unmarked) [Compound 19, ethyl 4-carbamoyl-3-methyl-5-(2-phenylbutanamido)thiophene-2-carboxylate], the EC50 worked out at 31.3 µM.

Consider `CCC(C(=O)Nc1snc(C)c1C#N)c1ccccc1` (centres unmarked) [Compound 68, N-(4-Cyano-3-methyl-isothiazol-5-yl)-2-phenyl-butyramide], for which the EC50 is 8.6 µM.

For the compound `CCC(C(=O)Nc1cc(C)c(C(=O)OC)s1)c1ccccc1` (centres unmarked) [Compound 22, 3-Methyl-5-(2-phenyl-butyrylamino)-thiophene-2-carboxylic acid methyl ester], the EC50 came to 26.8 µM.

Consider `COC(=O)c1c(NC(=O)C(Cc2ccccc2)N2C(=O)c3ccccc3C2=O)sc(C(N)=O)c1C` (centres unmarked) [Compound 33, 5-Carbamoyl-2-[2-(1,3-dioxo-1,3-dihydro-isoindol-2-yl)-3-phenyl-propionylamino]-4-methyl-thiophene-3-carboxylic acid methyl ester], for which the EC50 came out at 43.6 µM.

Regarding `CCOC(=O)c1c(NC(=O)C(CC)c2ccccc2)sc(C(=O)N(C)C)c1C` (centres unmarked) [Compound 5, ethyl 5-(dimethylcarbamoyl)-4-methyl-2-(2-phenylbutanamido)thiophene-3-carboxylate], the EC50 was found to be 29.7 µM.

Take `CCC(C(=O)Nc1sc(C)c(C)c1C(=O)OC)c1ccccc1` (centres unmarked) [Compound 26, methyl 4,5-dimethyl-2-(2-phenylbutanamido)thiophene-3-carboxylate]: the EC50 was 45.3 µM.

With `CCC(C(=O)Nc1cc(C)cs1)c1ccccc1` (centres unmarked) [Compound 34, N-(4-methyl-thiophen-2-yl)-2-phenyl-butyramide], the EC50 was 46.7 µM.

For the compound `Cc1c(C(N)=O)sc(N(C(=O)C2CCCc3ccccc32)C(=O)C2CCCc3ccccc32)c1C#N` (centres unmarked) [Compound 47, 5-[Bis-(1,2,3,4-tetrahydro-naphthalene-1-carbonyl)-amino]-4-cyano-3-methyl-thiophene-2-carboxylic acid amide], the EC50 is 20 µM.

As to `CC[C@H](C(=O)Nc1sc(C(N)=O)c(C)c1C(=O)OC)c1ccccc1` [Compound 15, methyl (S)-5-carbamoyl-4-methyl-2-(2-phenylbutanamido)thiophene-3-carboxylate], the EC50 is 17.9 µM.

In the case of `CCOC(=O)c1sc(NC(=O)C(CC)c2ccccc2)cc1C` (centres unmarked) [Compound 72, ethyl 3-methyl-5-(2-phenylbutanamido)thiophene-2-carboxylate], the EC50 was determined as 19.1 µM.

Staying with this test, now noted: read-out: VV EC50.
On to `CC[C@@H](C(=O)Nc1sc(C(N)=O)c(C)c1C(=O)OC)c1ccccc1` [Compound 17, methyl (R)-5-carbamoyl-4-methyl-2-(2-phenylbutanamido)thiophene-3-carboxylate], for which the EC50 was determined as 26.8 µM.
